Laboratory results as given in publication PMC11680790, “Structural and functional determination of peptide versus small molecule ligand binding at the apelin receptor” (Nature Communications, 2024).
Changes are numbered by the printed parent chain.

What was measured:
rat = test system: rat; set-up: method as in Yang et al., Circulation. 2017; conditions: 21 days, rats; ref Yang et al., Circulation. 2017; cited from earlier work
anaesthetised rats = test system: anaesthetised rats; set-up: method as in 2 sources, ref Read et al. Biochem Pharmacol 2016 ||| ref Yang et al., Circulation. 2017; conditions: cited from earlier work
apelin receptor NxStaR = biological target: T1, apelin receptor NxStaR (Homo sapiens, UniProt P35414, F214L/I224A/N112A/S298A/T207M/T87V); experiment: SPR, pH dependence (Biacore 8K+), NxStaR; conditions: 5% DMSO, 10 °C, single determination
T1 sequence (P35414 1-380 T87V/N112A/T207M/F214L/I224A/S298A): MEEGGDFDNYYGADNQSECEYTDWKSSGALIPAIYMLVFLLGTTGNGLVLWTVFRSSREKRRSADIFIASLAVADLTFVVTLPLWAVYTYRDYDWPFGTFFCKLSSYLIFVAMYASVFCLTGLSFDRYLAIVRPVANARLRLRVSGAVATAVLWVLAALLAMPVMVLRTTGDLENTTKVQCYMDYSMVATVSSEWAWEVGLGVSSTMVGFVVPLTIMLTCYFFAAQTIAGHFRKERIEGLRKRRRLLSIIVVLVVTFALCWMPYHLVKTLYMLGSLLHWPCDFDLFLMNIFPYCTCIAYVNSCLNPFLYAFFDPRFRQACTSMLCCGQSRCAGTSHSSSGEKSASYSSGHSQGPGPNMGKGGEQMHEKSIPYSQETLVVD
Method: (§10) Both were equipped with a NTA sensor chip (Cytiva). […] 0.5 M EDTA pH 8.0 was injected for 60 s at 5 µL/min followed by a 60 s injection of run buffer containing 0.5 mM NiCl2. The surface was activated with a 1:1 mixture of 0.1 M NHS and 0.5 M EDC at a flow rate of 10 µL/min for 420 s. The receptors were injected at a concentration of 1 µM at 5 µL/min until a surface response of 5000 RU was achieved. The surface was equilibrated for 12 h in buffer before commencing experiments.
(§11) Compound and peptide binding was measured in pH 7.5 buffer previously described and in buffer at pH 6.0 comprising of 0.025 M MES, pH 6.0, 0.15 M NaCl, 0.02% DDM, 5% DMSO. The analyses were run in single-cycle format with four concentration points in a twofold dilution series. […] The association phase was 60 s for each concentration and the dissociation phase was 300 s. There were 4 blank cycles between compound injections.
(§12) The data were processed using Biacore T200 Evaluation Software (Version 2.0, Cytiva) and Biacore Insight Evaluation Software (Version 5.0, Cytiva). Sensorgrams were reference and blank subtracted before fitting with 1:1 binding model which accounted for drift, bulk shift and mass transport.

[1] = test system: apelin receptor in human, rat and mouse heart; set-up: method as in Read et al. Biochem Pharmacol. 2016; conditions: ref Read et al. Biochem Pharmacol. 2016; cited from earlier work
Chrom logD = format: physicochemical; conditions: chromatographic
[2] = biological target: T2, R/H168^4.64 variant NxStaR (Homo sapiens, UniProt P35414, F214L/I224A/N112A/R168H/S298A/T207M/T87V); experiment: SPR, pH dependence (Biacore 8K+), R/H168^4.64 NxStaR; conditions: 5% DMSO, 10 °C, single determination
T2 sequence (P35414 1-380 T87V/N112A/R168H/T207M/F214L/I224A/S298A): T1 sequence (P35414 1-380 T87V/N112A/T207M/F214L/I224A/S298A) with R168H
Method: as §10, §11, §12

[3] = biological target: T3, wild-type apelin receptor (Homo sapiens, UniProt P35414); experiment: DiscoveRx cAMP assay, CHO-K1 transiently transfected, wild-type; format: cell-based
T3 construct: expressed in transfected cells; host or cells: CHO-K1 (ECACC 85051005), transient, pcDNA3.1
T3 sequence (P35414 1-380): T1 sequence (P35414 1-380 T87V/N112A/T207M/F214L/I224A/S298A) with V87T, A112N, M207T, L214F, A224I, A298S
Text: (1 picture or pasted object on this page, not shown here)

T/M89 apelin receptor = experiment: DiscoveRx cAMP assay, CHO-K1 transiently transfected, T/M89; format: cell-based, human
Text: (§1) (A) ERK1/2 and (B) eNOS in PAECs and ERK1/2 in (C) control and (D) PAH PASMcs following treatment with 0.1% serum (control), […]
(§2) measures with Tukey’s post-test for multiple comparisons. […]
(§3) difference in down-stream signalling with the endogenous ligands used in our study.
(§4) However, dynamic mass redistribution assays are a widely used (over 400 references in Pubmed) and generally accepted robust label-free technology to measure ligand-induced changes in the mass of cells and provides an integrated cellular response, comprising multiple pathways and cellular events. We believe
(§5) DMR is robust for testing the function of apelin receptor variants, particularly when combined with our radioligand binding assays. […]
(§6) recommended.’ We thank the referee for the recommendation but we were not successful in generating additional data in the apelin receptor variants with downstream signalling functional assays that we carried […]
(§7) We have tried to test the function of apelin receptor variants in a DiscoveRx cAMP assay. The figure below […]
(§8) Provided in the assay kit, CHO-K1 cells stably expressing the apelin receptor (shown in green) responded as […]
(§9) the levels of forskolin stimulated cAMP accumulation and decreasing the fluorescent signal in relative li ght units (RLU). CHO-K1 cells transiently transfected in-house with either wild-type (black), T/M89 (red), or […]

apelin receptor = experiment: DiscoveRx cAMP assay, CHO-K1 stably expressing the apelin receptor; format: cell-based, human; conditions: stably expressing CHO-K1, forskolin stimulated cAMP
Text: as §1, §2, §3, §4, §5, §6, §7, §8, §9

human apelin receptor = biological target: T4, human apelin receptor (Homo sapiens, UniProt P35414); set-up: method as in 2 sources, ref Read et al., 2016, PMID:27475715 ||| ref Read et al. Biochem Pharmacol. 2016; conditions: cited from earlier work
T4 sequence (P35414 1-380): T1 sequence (P35414 1-380 T87V/N112A/T207M/F214L/I224A/S298A) with V87T, A112N, M207T, L214F, A224I, A298S

R/H168 apelin receptor = experiment: DiscoveRx cAMP assay, CHO-K1 transiently transfected, R/H168; format: cell-based, human
Text: as §1, §2, §3, §4, §5, §6, §7, §8, §9

[4] = ref Read et al. Biochem Pharmacol. 2016

Molecule | blood pressure, chronic ELA treatment (rat) | systemic vasodilatation (anaesthetised rats; carotid artery catheterisation, ref Yang et al., Circulation. 2017) | Kd (apelin receptor NxStaR; pH 6.0 (MES), 0.02% DDM) [nM] | Kd (apelin receptor NxStaR; pH 7.5, 0.02% DDM) [nM] | competition for specific binding of apelin [1] | Chrom logD (Chrom logD) | Kd ([2]; pH 6.0 (MES), 0.02% DDM) [nM] | Kd ([2]; pH 7.5, 0.02% DDM) [nM] | cAMP response [3] | stroke volume and cardiac output (anaesthetised rats; anaesthetised rats, ref Read et al. Biochem Pharmacol 2016) | peripheral arterial pressure (anaesthetised rats; i.v. CMF-019 potassium salt, anaesthetised rat, ref Read et al. Biochem Pharmacol 2016) | left ventricular contractility (anaesthetised rats; i.v. CMF-019 potassium salt, anaesthetised rats, ref Read et al. Biochem Pharmacol 2016) | cAMP response (T/M89 apelin receptor) | cAMP response (apelin receptor) | bias factor cAMP vs receptor internalisation (human apelin receptor; [4]) | bias factor cAMP vs β-arrestin recruitment (human apelin receptor; [4]) | cAMP potency versus [Pyr1]apelin-13 (human apelin receptor; [4]) | bias towards G protein pathway over beta-arrestin (human apelin receptor; ref Read et al., 2016, PMID:27475715) | cAMP response (R/H168 apelin receptor)
NCLQRRCMPLHSRVPFP [ELA, endogenous peptide Elabela/Toddler] | did not significantly affect systemic blood pressure | caused acute systemic vasodilatation |  |  |  |  |  |  |  |  |  |  |  |  |  |  |  |  | 
CCC(CC)n1c(Cc2cccs2)nc2cc(C(=O)N[C@H](CC(=O)O)CC(C)C)ccc21 [CMF-019] |  |  | 3.4 | 6.1 | competes for the specific binding of apelin | 3.14 | 14.6 | 68.7 | did not show an observable response | increased stroke volume and cardiac output | reduced peripheral arterial pressure | dose dependent increases in left ventricular contractility | did not show an observable response | reducing | ~ 5000 | ~ 400 | comparable potency to [Pyr1]apelin-13 | 2250 | did not show an observable response
